Publication PMC7447632, “Highly functionalized β-lactams and 2-ketopiperazines as TRPM8 antagonists with antiallodynic activity” (Scientific Reports, 2020)
Where a name gives a salt, the structure may show the parent alone. Read-outs that look alike come from different tables or passages of the source.

Experiments:
Assay type in all cases: cell-based
[1] = test system: HT29 (colorectal adenocarcinoma); assay: SRB cytotoxicity assay, HT29; conditions: for TGI HT29: total growth inhibition; for GI50 / CC50: Homo sapiens; for CC50: read-out: LC50 HT29
Procedure: (§1) Human tumor cell lines used in this study were purchased from the ATCC. A-549 (CCL-185), lung carcinoma; HT-29 (HTB-38), colorectal adenocarcinoma; MDA-MB-231 (HTB-26), breast adenocarcinoma; PSN1, pancreas adenocarcinoma.
(§2) All cell lines were maintained in DMEM (Dulbecco’s Modified Eagle's Medium) culture medium supplemented with 10% FBS (Fetal Bovine Serum), 100 Units/mL penicillin/streptomycin at 37 °C, 5% CO2 and 95% humidity.
(§3) Triplicate cultures were incubated for 72 h in the presence or absence of test compounds in dose–response curves (10 concentrations, typically ranging from 10 to 0.0026 µg/mL). A colorimetric assay using sulforhodamine B (SRB) was adapted for quantitative measurement of cell growth and cytotoxicity. A more detailed information on this assay is provides in the supplementary information. GI50 is the compound concentration that produces 50% inhibition on cell growth as compared to control cells.
(§4) In vitro bioassays for the detection of antitumor activity
(§5) The aim of this assay is to evaluate the in vitro cytostatic (ability to delay or arrest tumor cell growth) or cytotoxic (ability to kill tumor cells) activity of the samples […]
(§6) Name Nº ATCC Species Tissue Characteristics
(§7) A549 CCL-185 human lung lung carcinoma (NSCLC)
(§8) HT29 HTB-38 human colon colorectal adenocarcinoma
(§9) MDA-MB-231 HTB-26 human breast breast adenocarcinoma
(§10) PSN1 CRM-CRL-3211 human pancreas pancreas adenocarcinoma […]
(§11) A colorimetric assay, using Sulforhodamine B (SRB) reaction has been adapted to provide a quantitative measurement of cell growth and viability (following the technique described by Skehan et al. J. Natl. Cancer Inst. 1990, 82, 1107-1112 […]
(§12) This form of assay employs 96-well cell culture microplates following the standards of the American National Standards Institute and the Society for Laboratory […]
(§13) used in this study were obtained from the American Type Culture Collection (ATCC) and derive from different types of human cancer.
(§14) A549, HT29, MDA-MB-231 and PSN1 cells were maintained in Dulbecco’s
(§15) Modified Eagle Medium (DMEM) supplemented with 10% Fetal Bovine Serum (FBS), 2mM L-glutamine, 100 U/mL penicillin, and 100 U/mL streptomycin at 37 °C, 5% CO2 and 98% humidity. For the experiments, cells were harvested from subconfluent cultures using trypsinization and resuspended in fresh medium before counting and […]
(§16) A549, HT29, MDA-MB-231 and PSN1 cells were seeded in 96 well microtiter plates, at 5000 cells per well in aliquots of 150 µL, and allowed to attach to the plate surface for 18 hours (overnight) in drug free medium. After that, one control (untreated) plate of each cell line was fixed (as described below) and used for time zero reference value. Culture plates were then treated with test compounds (50 µL aliquots of 4X stock […]
(§17) solutions in complete culture medium plus 4% DMSO) using ten 2/5 serial dilutions (concentrations ranging from 10 to 0.003 µg/mL) and triplicate cultures (1% final concentration in DMSO). After 72 hours treatment, the antitumor effect was measured by using the SRB methodology: Briefly, cells were washed twice with PBS, fixed for 15 min in 1% glutaraldehyde solution at room temperature, rinsed twice in PBS, and stained in 0.4% SRB solution for 30 min at room temperature. Cells were then rinsed several times with 1% acetic acid solution and air-dried at room temperature. SRB was then extracted in 10 mM trizma base solution and the absorbance measured in an automated spectrophotometric plate reader at 490 nm.
(§18) Effects on cell growth and survival were estimated by applying the NCI algorithm (Boyd MR and Paull KD. Drug Dev. Res. 1995, 34, 91-109, DOI:10.1002/ddr.430340203). The values obtained in triplicate cultures were fitted by nonlinear regression to a four-parameters logistic curve by nonlinear regression analysis. . Using the absorbance measurements [time zero, (Tz), control growth, (C), and test growth in the presence of drug at the ten concentration levels (Ti)], the […]

hTRPV1 channels = biological target: T1, hTRPV1 channels (Homo sapiens, UniProt Q8NER1); assay: Ca2+ microfluorometry in HEK cells expressing hTRPV1 (capsaicin); conditions: 1 µM capsaicin; for TRPV1 Blockade (%) 5 µM: 5 µM compound; for TRPV1 Blockade (%) 50 µM: 50 µM compound
T1 construct: expressed in transfected cells; host or cells: HEK (stably transfected)
Procedure: β-Lactam and 2-ketopiperazine derivatives were also assayed for their activity in cell expressing hTRPV1 channels. No significant antagonist activity was measured for any derivatives within both chemotypes (Supplementary Tables S1, S2, and Fig. S3), indicating their selectivity for TRPM8 channels.
(§19) Human embryonic kidney cell line (HEK) stably transfected with rTRPM8 or h-TRPV1 were used as previously described. Briefly, cells were seeded in 96-well plates at a cell density of 30,000 cells 2 days before treatment. Buffer used was HBBS (in mM): 138 NaCl, 5.33 KCl, 1.26 CaCl2, 0.5 MgCl-6H2O, 0.4 MgSO4-7H2O, 4 NaHCO3 0.44 KH2PO4, 0.3 Na2HPO4, pH 7.4. The day of treatment the medium was replaced with 100 µL of the dye loading solution Fluo-4 NW supplemented with probenecid 2.5 mM. After incubation, plates were transferred to a fluorescence plate reader (Polastar BMG). In the experimental protocol, the baseline fluorescence was recorded ([…]) for 3 cycles. After, vehicle, compound at different concentrations and the corresponding antagonist, 10 µM AMTB for TRPM8 or 10 µM Ruthenium Red for TRPV1 were added to the well. Fluorescence intensity was recorded during 7 cycles more. Finally, the agonist 100 µM menthol for TRPM8 or 1 µM capsaicin for TRPV1 was added and fluorescence intensity was recorded during 10 cycles more.
Table S1. Activity at hTRPV1 of β–lactams derived from phenylalaninol conjugates
Compd. Isomer Isomer TRPV1 Blockade (%)
Table S2. Activity at hTRPV1 of 2-ketopiperazines derived from phenylalaninol

[2] = test system: MDA-MB-231 (breast adenocarcinoma); assay: SRB cytotoxicity assay, MDA-MB-231; conditions: for TGI MDA-MB-231: total growth inhibition; for GI50 / CC50: Homo sapiens; for CC50: read-out: LC50 MDA-MB-231
Procedure: as §1, §2, §3, §4, §5, §6, §7, §8, §9, §10, §11, §12, §13, §14, §15, §16, §17, §18

[3] = test system: A549 (lung carcinoma, NSCLC); assay: SRB cytotoxicity assay, A549; conditions: for TGI A549: total growth inhibition; for GI50 / CC50: Homo sapiens; for CC50: read-out: LC50 A549
Procedure: as §1, §2, §3, §4, §5, §6, §7, §8, §9, §10, §11, §12, §13, §14, §15, §16, §17, §18

[4] = test system: PSN1 (pancreas adenocarcinoma); assay: SRB cytotoxicity assay, PSN1; conditions: for TGI PSN1: total growth inhibition; for GI50 / CC50: Homo sapiens; for CC50: read-out: LC50 PSN1
Procedure: as §1, §2, §3, §4, §5, §6, §7, §8, §9, §10, §11, §12, §13, §14, §15, §16, §17, §18

rat TRPM8 channel = biological target: T2, rat TRPM8 channel (Rattus norvegicus, UniProt Q8R455); assay: Ca2+ microfluorometry, menthol-induced Ca2+ influx in HEK293 cells expressing rat TRPM8; conditions: 100 µM menthol, HEK-rTRPM8; for % Blockade 5 µM: 5 µM compound; for % Blockade 50 µM: 50 µM compound; for IC50: Ca2+ microfluorometry
T2 construct: expressed in transfected cells; host or cells: HEK293 (stably transfected)
Procedure: The ability to inhibit menthol-induced Ca^2+ intracellular influx into the cytosol on HEK293 cells heterologously expressing the rat TRPM8 channel was measured and compared to that of AMTB, a well-known TRPM8 antagonist. Representative recordings of fluorescence obtained in microfluorometry experiments for selected compounds are in Supplementary Fig. S3.
as §19
The degree of inhibition of TRPM8 channel gating was calculated by comparison to calcium increase signal elicited by test substances and menthol at 100 µM. Decrease of menthol signal was expressed as percentage of inhibition (%). All data are expressed as mean ± standard deviation (SD). Each condition was assessed by triplicate (n = 3) in 3 independent experiments (N = 3). Z-factor was calculated in each assay using the following equation: […]. In all the experiments Z-factor was ≥ 0.5. To calculate IC50, normalized responses (%) versus log [µM] were adjusted to a non-linear fit with variable slope, a four-parameter dose–response curve following curve Y = 100/(1 + 10^((Log IC50-X)*HillSlope)) where […].

T2 sequence (Q8R455 whole entry): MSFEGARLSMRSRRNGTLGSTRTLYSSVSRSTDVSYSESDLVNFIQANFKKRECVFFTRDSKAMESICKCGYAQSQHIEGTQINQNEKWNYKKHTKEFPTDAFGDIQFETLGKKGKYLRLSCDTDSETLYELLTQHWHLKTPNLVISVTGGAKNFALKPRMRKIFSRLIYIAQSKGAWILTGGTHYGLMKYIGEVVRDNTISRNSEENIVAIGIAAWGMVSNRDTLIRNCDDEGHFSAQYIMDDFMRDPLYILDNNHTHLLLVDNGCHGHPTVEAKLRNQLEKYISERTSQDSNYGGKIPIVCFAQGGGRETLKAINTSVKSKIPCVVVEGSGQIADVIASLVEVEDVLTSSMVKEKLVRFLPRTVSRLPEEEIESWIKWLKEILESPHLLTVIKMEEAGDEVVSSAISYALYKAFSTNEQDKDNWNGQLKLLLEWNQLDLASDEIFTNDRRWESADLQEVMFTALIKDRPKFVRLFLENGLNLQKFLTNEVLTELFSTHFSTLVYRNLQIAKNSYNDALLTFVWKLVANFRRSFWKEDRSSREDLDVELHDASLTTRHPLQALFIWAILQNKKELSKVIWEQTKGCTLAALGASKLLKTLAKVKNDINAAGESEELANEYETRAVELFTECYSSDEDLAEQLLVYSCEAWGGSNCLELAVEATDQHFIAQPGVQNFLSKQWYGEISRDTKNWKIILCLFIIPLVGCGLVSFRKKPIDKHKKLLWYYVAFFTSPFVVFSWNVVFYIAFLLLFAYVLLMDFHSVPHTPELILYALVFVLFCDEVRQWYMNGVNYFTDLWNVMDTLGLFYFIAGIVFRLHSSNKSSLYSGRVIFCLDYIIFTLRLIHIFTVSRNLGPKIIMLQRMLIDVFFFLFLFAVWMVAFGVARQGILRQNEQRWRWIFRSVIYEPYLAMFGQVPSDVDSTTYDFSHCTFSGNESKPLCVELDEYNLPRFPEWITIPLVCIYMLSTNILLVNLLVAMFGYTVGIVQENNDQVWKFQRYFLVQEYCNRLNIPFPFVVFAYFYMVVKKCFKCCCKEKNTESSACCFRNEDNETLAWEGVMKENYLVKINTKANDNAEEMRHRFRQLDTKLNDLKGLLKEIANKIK
T1 sequence (Q8NER1 whole entry): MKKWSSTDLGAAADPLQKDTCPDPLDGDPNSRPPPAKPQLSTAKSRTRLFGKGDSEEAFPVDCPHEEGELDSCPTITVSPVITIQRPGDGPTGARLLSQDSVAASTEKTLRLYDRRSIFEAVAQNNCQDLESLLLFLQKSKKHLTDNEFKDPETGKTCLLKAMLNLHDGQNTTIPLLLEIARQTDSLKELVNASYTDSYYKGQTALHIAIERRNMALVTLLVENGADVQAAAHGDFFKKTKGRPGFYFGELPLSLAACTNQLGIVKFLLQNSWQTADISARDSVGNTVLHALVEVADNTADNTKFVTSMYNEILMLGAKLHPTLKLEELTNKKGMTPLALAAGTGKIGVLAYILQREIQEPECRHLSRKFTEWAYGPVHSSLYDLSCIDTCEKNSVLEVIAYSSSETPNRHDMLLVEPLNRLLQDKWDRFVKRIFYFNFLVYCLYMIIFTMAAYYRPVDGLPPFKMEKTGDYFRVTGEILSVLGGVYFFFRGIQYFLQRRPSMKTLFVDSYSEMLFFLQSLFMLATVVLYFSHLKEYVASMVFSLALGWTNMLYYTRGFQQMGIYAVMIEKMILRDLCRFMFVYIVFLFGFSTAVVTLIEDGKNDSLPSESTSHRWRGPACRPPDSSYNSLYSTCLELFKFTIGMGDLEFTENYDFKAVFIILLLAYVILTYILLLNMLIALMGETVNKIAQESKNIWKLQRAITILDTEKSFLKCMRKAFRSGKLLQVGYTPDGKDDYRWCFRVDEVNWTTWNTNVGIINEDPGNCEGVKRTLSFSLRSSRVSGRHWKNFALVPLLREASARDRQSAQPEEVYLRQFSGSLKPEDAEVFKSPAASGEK

TRPV1 Blockade (%) 5 µM (hTRPV1 channels) [%]	TRPV1 Blockade (%) 50 µM (hTRPV1 channels) [%]	% Blockade 5 µM (rat TRPM8 channel) [%]	% Blockade 50 µM (rat TRPM8 channel) [%]	IC50 (rat TRPM8 channel) [nM]	SMILES	also measured
9.2±2.1	13.9±4.8	101.7 ± 5.3	101.2 ± 11.4	160	C[C@@H]1C(=O)N(C(Cc2ccccc2)C(=O)OCc2ccccc2)C[C@@H](Cc2ccccc2)N1C(=O)OCc1ccccc1 (some centres unmarked) [Compound 30ab]	TGI HT29 ([1]; 72 h, SRB, unit inferred): > 17.3 µM; GI50 ([1]; HT-29, 72 h, SRB): > 17300 nM; CC50 ([1]; HT-29, 72 h, SRB, unit inferred): > 17.3 µM; TGI MDA-MB-231 ([2]; 72 h, SRB, unit inferred): > 17.3 µM; GI50 ([2]; MDA-MB-231, 72 h, SRB): > 17300 nM; CC50 ([2]; MDA-MB-231, 72 h, SRB, unit inferred): > 17300 nM; TGI A549 ([3]; 72 h, SRB, unit inferred): > 17.3 µM; GI50 ([3]; A549, 72 h, SRB): 12.7 µM; CC50 ([3]; A549, 72 h, SRB, unit inferred): > 17300 nM; TGI PSN1 ([4]; 72 h, SRB, unit inferred): > 17.3 µM; GI50 ([4]; PSN1, 72 h, SRB): 8.3 µM; CC50 ([4]; PSN1, 72 h, SRB, unit inferred): > 17300 nM
6.2±3.1	11.8±1.8	70.0 ± 6.8	92.5 ± 4.3	2000 ± 1500	O=C(OCc1ccccc1)C(Cc1ccccc1)N1C[C@H](Cc2ccccc2)N(C(=O)OCc2ccccc2)CC1=O (some centres unmarked) [Compound 21ab]	–
3.4±1.7	4.3±1.1	68.2 ± 5.6	89.2 ± 9.2	3900 ± 1900	CC1C(=O)N(C[C@H](Cc2ccccc2)NC(=O)OCc2ccccc2)[C@@]1(Cc1ccccc1)C(=O)OCc1ccccc1 (some centres unmarked) [Compound 25ab]	–
4.1±2.4	8.7±3.5	91.0 ± 4.3	103 ± 2.7	1200 ± 1000	O=C(N[C@H](Cc1ccccc1)CN1C(=O)CC1(Cc1ccccc1)C(=O)OCc1ccccc1)OCc1ccccc1 (some centres unmarked) [Compound 14ab]	–
5.7±2.3	12.1±1.3	91.0 ± 4.3	105.0 ± 5.5	1600 ± 1300	CC1C(=O)N(C[C@@H](Cc2ccccc2)NC(=O)OCc2ccccc2)[C@@]1(Cc1ccccc1)C(=O)OCc1ccccc1 (some centres unmarked) [Compound 31ab]	–
–	–	79.1 ± 3.3	107.9 ± 2.5	800 ± 1200	CC(C(=O)OCc1ccccc1)N1C[C@@H](Cc2ccccc2)N(C(=O)OCc2ccccc2)[C@H](C)C1=O (some centres unmarked) [Compound 40ab]	–
2.6±0.9	3.2±2.777	46.6 ± 11.1	100.4 ± 3.5	6200 ± 1100	C[C@@H]1C(=O)N(C[C@@H](Cc2ccccc2)NC(=O)OCc2ccccc2)[C@]1(C)C(=O)OCc1ccccc1 [Compound 39a]	–
–	–	66.0 ± 3.3	105.5 ± 3.2	2500 ± 1300	CC(C(=O)OCc1ccccc1)N1CC(Cc2ccccc2)N(C(=O)OCc2ccccc2)CC1=O (centres unmarked) [Compound 38ab]	–

More lines, now with the values behind:

SMILES	TRPV1 Blockade (%) 5 µM (hTRPV1 channels) [%]	TRPV1 Blockade (%) 50 µM (hTRPV1 channels) [%]	% Blockade 5 µM (rat TRPM8 channel) [%]	% Blockade 50 µM (rat TRPM8 channel) [%]	IC50 (rat TRPM8 channel) [nM]	also measured
COC(=O)C(Cc1ccccc1)N1C[C@H](Cc2ccccc2)N(C(=O)OCc2ccccc2)CC1=O (some centres unmarked) [Compound 20ab]	12.2±3.1	19.3±1.2	22.3 ± 5.5	61.0 ± 5.6	18800 ± 1700	–
C[C@H]1C(=O)N(C(Cc2ccccc2)C(=O)OCc2ccccc2)C[C@H](Cc2ccccc2)N1C(=O)OCc1ccccc1 (some centres unmarked) [Compound 26ab]	6.2±1.8	7.3±3.2	93.5 ± 3.4	102.4 ± 1.5	2400	–
C[C@H]1C(=O)N(C(Cc2ccccc2)C(=O)OCc2ccccc2)C[C@@H](Cc2ccccc2)N1C(=O)OCc1ccccc1 (some centres unmarked) [Compound 32ab]	4.1±2.3	6.3±2.3	47.4 ± 6.8	115.1 ± 4.5	17400 ± 1600	–
O=C(N[C@@H](Cc1ccccc1)CN1C(=O)CC1(Cc1ccccc1)C(=O)OCc1ccccc1)OCc1ccccc1 (some centres unmarked) [Compound 12ab]	9.2±1.4	15.3±2.8	92.3 ± 6.2	100.0 ± 3.1	1500 ± 1200	–
COc1cccc2c1C(=O)c1c(O)c3c(c(O)c1C2=O)C[C@@](O)(C(=O)CO)C[C@@H]3O[C@H]1C[C@H](N)[C@H](O)[C@H](C)O1 [Doxorubicin.HCl, reference compound]	–	–	–	–	–	TGI HT29 ([1]; 72 h, SRB, unit inferred): 0.64 µM; CC50 ([1]; HT-29, 72 h): > 17.2 µM; GI50 ([1]; HT-29, 72 h, SRB): 190 nM; TGI MDA-MB-231 ([2]; 72 h, SRB, unit inferred): 0.41 µM; CC50 ([2]; MDA-MB-231, 72 h): 980 nM; GI50 ([2]; MDA-MB-231, 72 h, SRB): 170 nM; TGI A549 ([3]; 72 h, SRB, unit inferred): 0.64 µM; CC50 ([3]; A549, 72 h): 2930 nM; GI50 ([3]; A549, 72 h, SRB): 0.24 µM; TGI PSN1 ([4]; 72 h, SRB, unit inferred): 0.48 µM; CC50 ([4]; PSN1, 72 h): 1620 nM; GI50 ([4]; PSN1, 72 h, SRB): 0.17 µM
